The target of the experiment is T1, pyruvate decarboxylase (ZmPDC) (Zymomonas mobilis, UniProt P06672).
T1 construct: gene pdc; N-terminal His6-tag, pET28a, overexpressed in E. coli; tetramer (dimer of dimers)
Nature of the experiment: coupled PDC/ADH assay (NADH, […] nm); time-course inactivation of apo-PDC and equilibrium competition with ThDP. It is filed as biochemical.

T1 sequence (P06672 whole entry): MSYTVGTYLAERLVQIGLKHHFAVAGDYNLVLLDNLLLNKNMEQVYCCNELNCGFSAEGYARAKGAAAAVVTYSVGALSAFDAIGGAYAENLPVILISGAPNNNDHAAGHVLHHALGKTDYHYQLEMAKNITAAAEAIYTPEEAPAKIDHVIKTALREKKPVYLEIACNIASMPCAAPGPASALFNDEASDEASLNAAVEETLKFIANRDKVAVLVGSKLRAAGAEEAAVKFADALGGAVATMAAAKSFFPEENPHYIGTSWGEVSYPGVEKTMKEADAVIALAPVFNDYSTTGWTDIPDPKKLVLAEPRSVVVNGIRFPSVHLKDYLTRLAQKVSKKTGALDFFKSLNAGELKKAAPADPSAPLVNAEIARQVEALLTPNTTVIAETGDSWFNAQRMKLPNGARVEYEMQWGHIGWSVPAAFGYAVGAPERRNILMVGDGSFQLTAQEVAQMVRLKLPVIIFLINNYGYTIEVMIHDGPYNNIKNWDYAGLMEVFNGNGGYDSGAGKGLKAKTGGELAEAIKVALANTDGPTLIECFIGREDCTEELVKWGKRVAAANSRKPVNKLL

The compound `Cc1ncc(Cc2coc(CCOP(=O)(O)OP(=O)(O)O)c2)c(N)n1` [compound 17, furan analogue of ThDP] gave a Ki of 0.0325 nM.

The values above are taken from article PMC4222410, “Gold(I)-catalysed synthesis of a furan analogue of thiamine pyrophosphate” (Beilstein Journal of Organic Chemistry, 2014).
